Tests used:
Assay type in all cases: binding
[1] = molecular target: T1, PCSK9 (Homo sapiens, UniProt Q8NBP7); experiment: PCSK9 Alexa FRET Plus TR-FRET assay
T1 construct: biotin (biotinylated); purchased
In short: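 TR-FRET competition between europium-labeled PCSK9 and AlexaFluor-tagged cyclic peptide (prepared at 1920 nM stock), incubated at least 2 h at room temperature. IC50 from sigmoidal nonlinear fit converted to Ki using the peptide KD; falling europium counts flag false-positive inhibition; values reported in nM.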

[2] = molecular target: T1, PCSK9; experiment: PCSK9 Alexa FRET Standard TR-FRET assay; settings: Ki calculated from IC50 and KD of AF cyclic peptide Reagent A; 0.5 nM PCSK9, 20 nM AF cyclic peptide; read-out: Alexa FRET Stdt TR-FRET
In short: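 TR-FRET displacement with final 0.5 nM biotinylated PCSK9, 1.25 nM streptavidin-Eu and 20 nM AlexaFluor cyclic peptide in 50 mM HEPES pH 7.4, 0.15 M NaCl, 5 mM CaCl2, 0.01% BSA, 0.01% P20; ≥2 h at room temperature. IC50 by sigmoidal fit, converted to Ki (nM) using tracer KD.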

[3] = molecular target: T1, PCSK9; experiment: PCSK9 Alexa FRET Ultra TR-FRET assay
In short: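 Competition of compounds with AlexaFluor-tagged cyclic peptide (1920 nM solution, not final) for europium-labeled PCSK9, read by TR-FRET after at least 2 h at room temperature. IC50 from sigmoidal fit, converted to Ki (nM) using peptide KD; falling europium counts flag false positives.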

[4] = Ki calculated from IC50 and KD of AF cyclic peptide Reagent B, 0.5 nM PCSK9, 960 nM AF cyclic peptide, read-out: Alexa FRET Plus TR-FRET
[5] = Ki Ultra, calculated from IC50 and KD of AF cyclic peptide, 0.5 nM PCSK9, 960 nM AF cyclic peptide, read-out: Alexa FRET Ultra TR-FRET

T1 sequence (Q8NBP7 153-692): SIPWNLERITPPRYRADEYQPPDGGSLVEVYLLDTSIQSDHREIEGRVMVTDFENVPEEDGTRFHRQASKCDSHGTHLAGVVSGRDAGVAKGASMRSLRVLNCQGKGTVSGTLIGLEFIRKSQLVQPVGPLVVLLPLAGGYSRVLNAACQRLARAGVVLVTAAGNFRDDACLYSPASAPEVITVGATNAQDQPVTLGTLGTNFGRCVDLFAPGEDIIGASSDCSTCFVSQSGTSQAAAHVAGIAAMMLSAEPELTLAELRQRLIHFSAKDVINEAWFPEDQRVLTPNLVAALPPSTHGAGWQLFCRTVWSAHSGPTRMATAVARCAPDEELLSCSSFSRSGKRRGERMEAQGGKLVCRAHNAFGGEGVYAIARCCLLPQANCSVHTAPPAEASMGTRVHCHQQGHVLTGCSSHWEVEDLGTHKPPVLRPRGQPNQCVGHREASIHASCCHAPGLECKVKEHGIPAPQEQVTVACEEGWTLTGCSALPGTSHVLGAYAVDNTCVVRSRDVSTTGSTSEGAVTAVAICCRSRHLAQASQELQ

SMILES | Ki [1, 4] [nM] | Ki [2] [nM] | Ki [3, 5] [nM] | Ki [1] [nM] | Ki [3] [nM]
COc1ccc(C[C@@H]2NC(=O)[C@H]([C@@H](C)O)NC(=O)[C@@H]3[C@@H]4CCN3C(=O)[C@@H]3Cc5cn(c6ccc(F)cc56)CCCCCCN(Cc5ccc(cc5)CCNC(=O)[C@]5(C)CCCN5C2=O)C(=O)CCC(=O)N[C@@H](C)C(=O)N[C@H](CNC(=O)CCOCCOCC[N+](C)(C)CCNC(=O)CC[C@H](NC(=O)COCCOCCNC(=O)CC[C@H](NC(=O)CCCCCCCCCCCCCCCCC(=O)O)C(=O)O)C(=O)O)C(=O)N[C@@H](Cc2cccc(c2)CNC(=O)CO4)C(=O)N3)cc1 [Ex-54] | 0.021 | < 1.26 | 0.014 | – | –
COc1ccc(C[C@@H]2NC(=O)[C@H]([C@@H](C)O)NC(=O)[C@@H]3[C@@H]4CCN3C(=O)[C@@H]3Cc5cn(c6ccc(F)cc56)CCCCCCN(Cc5ccc(cc5)CCNC(=O)[C@]5(C)CCCN5C2=O)C(=O)CCC(=O)N[C@@H](C)C(=O)N[C@H](CNC(=O)[C@@H](CCCC[N+](C)(C)C)NC(=O)COCCOCCNC(=O)COCCOCCNC(=O)CC[C@H](NC(=O)CC[C@H](NC(=O)CCCCCCCCCCCCCCCCC(=O)O)C(=O)O)C(=O)O)C(=O)N[C@@H](Cc2cccc(c2)CNC(=O)CO4)C(=O)N3)cc1 [Ex-55] | 0.012 | < 1.26 | 0.01 | – | –
COc1ccc(C[C@@H]2NC(=O)[C@H]([C@@H](C)O)NC(=O)[C@@H]3[C@@H]4CCN3C(=O)[C@@H]3Cc5cn(c6ccc(F)cc56)CCCCCCN(Cc5ccc(cc5)CCNC(=O)[C@]5(C)CCCN5C2=O)C(=O)CCC(=O)N[C@@H](C)C(=O)N[C@H](CNC(=O)CCOCCOCC[N+](C)(C)CCNC(=O)COCCOCCNC(=O)COCCOCCNC(=O)CC[C@H](NC(=O)CCCCCCCCCCCCCCC(=O)N[C@@H](CC(=O)O)C(=O)O)C(=O)O)C(=O)N[C@@H](Cc2cccc(c2)CNC(=O)CO4)C(=O)N3)cc1 [Ex-56] | < 0.006 | < 1.26 | 0.004 | – | –
COc1ccc(C[C@@H]2NC(=O)[C@H]([C@@H](C)O)NC(=O)[C@@H]3[C@@H]4CCN3C(=O)[C@@H]3Cc5cn(c6ccc(F)cc56)CCCCCCN(Cc5ccc(cc5)CCNC(=O)[C@]5(C)CCCN5C2=O)C(=O)CCC(=O)N[C@@H](CNC(=O)CCOCCOCC[N+](C)(C)CCNC(=O)COCCOCCNC(=O)COCCOCCNC(=O)CC[C@H](NC(=O)CCCCCCCCCCCCCCC(=O)O)C(=O)O)C(=O)N[C@H](C)C(=O)N[C@@H](Cc2cccc(c2)CNC(=O)CO4)C(=O)N3)cc1 [Ex-57] | 0.009 | < 1.26 | 0.034 | – | –
COc1ccc(C[C@@H]2NC(=O)[C@H]([C@@H](C)O)NC(=O)[C@@H]3[C@@H]4CCN3C(=O)[C@@H]3Cc5cn(c6ccc(F)cc56)CCCCCCN(Cc5ccc(cc5)CCNC(=O)[C@]5(C)CCCN5C2=O)C(=O)CCC(=O)N[C@@H](CNC(=O)CCOCCOCC[N+](C)(C)CCNC(=O)COCCOCCNC(=O)COCCOCCNC(=O)CC[C@H](NC(=O)CC[C@H](NC(=O)CCCCCCCCCCCCCCCCC(=O)O)C(=O)O)C(=O)O)C(=O)N[C@H](C)C(=O)N[C@@H](Cc2cccc(c2)CNC(=O)CO4)C(=O)N3)cc1 [Ex-58] | 0.018 | < 1.26 | 0.079 | – | –
COc1ccc(C[C@@H]2NC(=O)[C@H]([C@@H](C)O)NC(=O)[C@@H]3[C@@H]4CCN3C(=O)[C@@H]3Cc5cn(c6ccc(F)cc56)CCCCCCN(Cc5ccc(cc5)CCNC(=O)[C@]5(C)CCCN5C2=O)C(=O)CCC(=O)N[C@@H](CNC(=O)CCOCCOCC[N+](C)(C)CCNC(=O)COCCOCCNC(=O)COCCOCCNC(=O)CC[C@@H](NC(=O)CC[C@@H](NC(=O)CCCCCCCCCCCCCCCCC(=O)O)C(=O)O)C(=O)O)C(=O)N[C@H](C)C(=O)N[C@@H](Cc2cccc(c2)CNC(=O)CO4)C(=O)N3)cc1 [Ex-59] | 0.02 | < 1.26 | 0.101 | – | –
COc1ccc(C[C@@H]2NC(=O)[C@H]([C@@H](C)O)NC(=O)[C@@H]3[C@@H]4CCN3C(=O)[C@@H]3Cc5cn(c6ccc(F)cc56)CCCCCCN(Cc5ccc(cc5)CCNC(=O)[C@]5(C)CCCN5C2=O)C(=O)CCC(=O)N[C@@H](CNC(=O)COCCOCC[N+](C)(C)CCOCCNC(=O)COCCOCCNC(=O)COCCOCCNC(=O)CC[C@H](NC(=O)CC[C@H](NC(=O)CCCCCCCCCCCCCCC(=O)O)C(=O)O)C(=O)O)C(=O)N[C@H](C)C(=O)N[C@@H](Cc2cccc(c2)CNC(=O)CO4)C(=O)N3)cc1 [Ex-60] | 0.008 | < 1.26 | 0.062 | – | –
COc1ccc(C[C@@H]2NC(=O)[C@H]([C@@H](C)O)NC(=O)[C@@H]3[C@@H]4CCN3C(=O)[C@@H]3Cc5cn(c6ccc(F)cc56)CCCCCCN(Cc5ccc(cc5)CCNC(=O)[C@]5(C)CCCN5C2=O)C(=O)CCC(=O)N[C@@H](CNC(=O)COCCOCCNC(=O)CC[C@H](NC(=O)CCOCCOCC[N+](C)(C)CCNC(=O)COCCOCCNC(=O)COCCOCCNC(=O)CC[C@H](NC(=O)CCCCCCCCCCCCCCCCC(=O)O)C(=O)O)C(=O)O)C(=O)N[C@H](C)C(=O)N[C@@H](Cc2cccc(c2)CNC(=O)CO4)C(=O)N3)cc1 [Ex-61] | 0.049 | < 1.26 | 0.131 | – | –
COc1ccc(C[C@@H]2NC(=O)[C@H]([C@@H](C)O)NC(=O)[C@@H]3[C@@H]4CCN3C(=O)[C@@H]3Cc5cn(c6ccc(F)cc56)CCCCCCN(Cc5ccc(cc5)CCNC(=O)[C@]5(C)CCCN5C2=O)C(=O)CCC(=O)N[C@@H](CNC(=O)COCCOCC[N+](C)(C)CCNC(=O)COCCOCCNC(=O)COCCOCCNC(=O)CC[C@H](NC(=O)CCCCCCCCOCCCCCCCCC(=O)O)C(=O)O)C(=O)N[C@H](C)C(=O)N[C@@H](Cc2cccc(c2)CNC(=O)CO4)C(=O)N3)cc1 [Ex-62] | – | < 1.26 | – | < 0.006 | 0.038

Second part, led by results:

Ki [1, 4] [nM] | Ki [2] [nM] | Ki [3, 5] [nM] | SMILES | Ki [1] [nM] | Ki [3] [nM]
< 0.006 | < 1.26 | 0.045 | COc1ccc(C[C@@H]2NC(=O)[C@H]([C@@H](C)O)NC(=O)[C@@H]3[C@@H]4CCN3C(=O)[C@@H]3Cc5cn(c6ccc(F)cc56)CCCCCCN(Cc5ccc(cc5)CCNC(=O)[C@]5(C)CCCN5C2=O)C(=O)CCC(=O)N[C@@H](CNC(=O)COCCOCCNC(=O)COCCOCCNC(=O)CC[C@H](NC(=O)CCCCCCCCCCCCCCCCC(=O)O)C(=O)O)C(=O)N[C@H](CNC(=O)CCOCCOCC[N+](C)(C)C)C(=O)N[C@@H](Cc2cccc(c2)CNC(=O)CO4)C(=O)N3)cc1 [Ex-63] | – | –
0.012 | < 1.26 | 0.028 | COc1ccc(C[C@@H]2NC(=O)[C@H]([C@@H](C)O)NC(=O)[C@@H]3[C@@H]4CCN3C(=O)[C@@H]3Cc5cn(c6ccc(F)cc56)CCCCCCN(Cc5ccc(cc5)CCNC(=O)[C@]5(C)CCCN5C2=O)C(=O)CCC(=O)N[C@@H](CNC(=O)CCOCCOCC[N+](C)(C)CCNC(=O)COCCOCCNC(=O)COCCOCCNC(=O)CC[C@H](NC(=O)CCCCCCCCCCCCCCC(=O)O)C(=O)O)C(=O)N[C@H](CNC(=O)CCOCCOCC[N+](C)(C)C)C(=O)N[C@@H](Cc2cccc(c2)CNC(=O)CO4)C(=O)N3)cc1 [Ex-64] | – | –
< 0.006 | < 1.26 | 0.024 | COc1ccc(C[C@@H]2NC(=O)[C@H]([C@@H](C)O)NC(=O)[C@@H]3[C@@H]4CCN3C(=O)[C@@H]3Cc5cn(c6ccc(F)cc56)CCCCCCN(Cc5ccc(cc5)CCNC(=O)[C@]5(C)CCCN5C2=O)C(=O)CCC(=O)N[C@@H](CNC(=O)COCCOCC[N+](C)(C)CCNC(=O)COCCOCCNC(=O)COCCOCCNC(=O)CC[C@H](NC(=O)CCCCCCCCCCCCCCCCC(=O)O)C(=O)O)C(=O)N[C@H](CNC(=O)CCOCCOCC[N+](C)(C)C)C(=O)N[C@@H](Cc2cccc(c2)CNC(=O)CO4)C(=O)N3)cc1 [Ex-65] | – | –
0.007 | < 1.26 | 0.027 | COc1ccc(C[C@@H]2NC(=O)[C@H]([C@@H](C)O)NC(=O)[C@@H]3[C@@H]4CCN3C(=O)[C@@H]3Cc5cn(c6ccc(F)cc56)CCCCCCN(Cc5ccc(cc5)CCNC(=O)[C@]5(C)CCCN5C2=O)C(=O)CCC(=O)N[C@@H](CNC(=O)COCCOCC[N+](C)(C)CCOCCNC(=O)COCCOCCNC(=O)COCCOCCNC(=O)CC[C@H](NC(=O)CC[C@H](NC(=O)CCCCCCCCCCCCCCC(=O)O)C(=O)O)C(=O)O)C(=O)N[C@H](CNC(=O)CCOCCOCC[N+](C)(C)C)C(=O)N[C@@H](Cc2cccc(c2)CNC(=O)CO4)C(=O)N3)cc1 [Ex-66] | – | –
< 0.006 | < 1.26 | 0.005 | COc1ccc(C[C@@H]2NC(=O)[C@H]([C@@H](C)O)NC(=O)[C@@H]3[C@@H]4CCN3C(=O)[C@@H]3Cc5cn(c6ccc(F)cc56)CCCCCCN(Cc5ccc(cc5)CCNC(=O)[C@]5(C)CCCN5C2=O)C(=O)CCC(=O)N[C@@H](C)C(=O)N[C@H](CNC(=O)CCOCCOCC[N+](C)(C)CCNC(=O)COCCOCCNC(=O)COCCOCCNC(=O)CCC(CS(=O)(=O)O)NC(=O)CCCCCCCCCCCCCCCCC(=O)O)C(=O)N[C@@H](Cc2cccc(c2)CNC(=O)CO4)C(=O)N3)cc1 (stereo partly drawn) [Ex-67] | – | –
< 0.006 | < 1.26 | 0.005 | COc1ccc(C[C@@H]2NC(=O)[C@H]([C@@H](C)O)NC(=O)[C@@H]3[C@@H]4CCN3C(=O)[C@@H]3Cc5cn(c6ccc(F)cc56)CCCCCCN(Cc5ccc(cc5)CCNC(=O)[C@]5(C)CCCN5C2=O)C(=O)CCC(=O)N[C@@H](C)C(=O)N[C@H](CNC(=O)CCOCCOCC[N+](C)(C)CCNS(=O)(=O)CCCNS(=O)(=O)CCCNC(=O)CC[C@H](NC(=O)CCCCCCCCCCCCCCCCC(=O)O)C(=O)O)C(=O)N[C@@H](Cc2cccc(c2)CNC(=O)CO4)C(=O)N3)cc1 [Ex-68] | – | –

Source: patent US12178842B2, “PCSK9 antagonist compounds” (MERCK SHARP & DOHME LLC, priority 2019, dated 2024)
